Experimental data: patent US12649751B2 (Arcus Biosciences, Inc., priority 2022, dated 2026)
Read-outs that look alike come from different tables or passages of the source.

Assays:
[1] = system: p-SLP-76 (Ser376) in Jurkat cells; test: pSLP76 Cellular Assay (AlphaLISA SureFire Ultra p-SLP-76 (Ser376), anti-CD3 activated Jurkat cells); type: cell-based; settings: Homo sapiens, read-out: Cellular Potency
In short: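 Jurkat cells, serum-starved overnight in Opti-MEM then in HBSS, preincubated 1 h at 37 °C with 22-point 2-fold compound dilutions, then stimulated with anti-CD3 (0.025 mg/ml added solution) for 45 min. Lysate p-SLP-76 (Ser376) measured by AlphaLISA at 570 nm; IC50 from 4-parameter logistic fit.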

HPK1 = HPK1 (Homo sapiens, UniProt Q92918); test: HPK1 Biochemical Assay (ADP-Glo luminescence; low ATP 10 μM or high ATP 200 μM)
[2] = pSLP76 (Ser376) AlphaLISA, anti-CD3 activated Jurkat cells
[3] = HPK1 ADP-Glo assay, high ATP (200 μM ATP, 5 nM HPK1), read-out: Biochemical Potency (high ATP)
[4] = Jurkat cells, anti-CD3 stimulation, pSLP76
[5] = 2 nM HPK1, 10 μM ATP, read-out: Biochemical Potency (low ATP)

Sequence of HPK1 (Q92918 whole entry, species assumed): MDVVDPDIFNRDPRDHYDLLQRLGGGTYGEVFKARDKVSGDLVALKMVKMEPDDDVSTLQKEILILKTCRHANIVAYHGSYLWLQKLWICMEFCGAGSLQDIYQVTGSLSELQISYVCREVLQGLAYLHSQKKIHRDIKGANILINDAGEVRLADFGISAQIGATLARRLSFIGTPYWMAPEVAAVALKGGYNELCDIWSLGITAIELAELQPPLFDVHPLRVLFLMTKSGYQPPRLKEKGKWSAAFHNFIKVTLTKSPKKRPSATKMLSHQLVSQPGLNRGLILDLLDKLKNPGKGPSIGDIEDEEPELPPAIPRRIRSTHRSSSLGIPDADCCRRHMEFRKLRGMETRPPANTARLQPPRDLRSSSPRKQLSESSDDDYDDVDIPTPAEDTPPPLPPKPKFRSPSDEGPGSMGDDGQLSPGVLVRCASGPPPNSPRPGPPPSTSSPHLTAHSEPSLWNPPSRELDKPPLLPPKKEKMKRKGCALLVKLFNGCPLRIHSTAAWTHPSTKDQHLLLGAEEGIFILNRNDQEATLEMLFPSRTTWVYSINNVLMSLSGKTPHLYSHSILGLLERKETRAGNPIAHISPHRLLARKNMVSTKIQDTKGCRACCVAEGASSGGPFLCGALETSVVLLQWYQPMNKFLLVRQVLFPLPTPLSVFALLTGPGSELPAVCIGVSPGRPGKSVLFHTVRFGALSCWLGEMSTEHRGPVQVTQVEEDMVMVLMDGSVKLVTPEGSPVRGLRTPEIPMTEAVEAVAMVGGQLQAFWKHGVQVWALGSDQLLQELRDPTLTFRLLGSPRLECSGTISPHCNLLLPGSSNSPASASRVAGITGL

Cc1cc(Nc2cc3nc(-c4cncc(N5CCOCC5)c4)sc3cn2)nc(N2C[C@@H]3C[C@H]2CN3CCO)n1 [Example 477] showed an IC50 [1, 2] of 100 to 1000 nM and an IC50 (HPK1; [3]) of under 100 nM.
For Cc1cc(Nc2cc3nc(-c4ccnc(N5CCOC[C@H]5C)c4)sc3cn2)nc(N2C[C@@H]3C[C@H]2CN3C)n1 [Example 455], the IC50 [1, 2] was 100 to 1000 nM and the IC50 (HPK1; [3]) was under 100 nM.
With Cn1ccnc1-c1nc2cc(Nc3ccc(C4CCOCC4)c(CN4CCCC4)n3)ncc2s1 [Example 217, N-[2-(1-Methyl-1H-imidazol-2-yl)-[1,3]thiazolo[5,4-c]pyridin-6-yl]-5-(oxan-4-yl)-6-[(pyrrolidin-1-yl)methyl]pyridin-2-amine] the IC50 [1, 4] was under 100 nM and the IC50 (HPK1; [5]) was under 100 nM.
Cc1ccnn1-c1nc2cc(Nc3cccc(N4C[C@@H]5C[C@H]4CN5C)n3)ncc2s1 [Example 205, N-[2-(5-Methyl-1H-pyrazol-1-yl)-[1,3]thiazolo[5,4-c]pyridin-6-yl]-6-[(1S,4S)-5-methyl-2,5-diazabicyclo[2.2.1]heptan-2-yl]pyridin-2-amine] gave an IC50 [1, 4] of 100 to 1000 nM, an IC50 (HPK1; [5]) of under 100 nM and an IC50 (HPK1; 5 nM HPK1, 200 μM ATP, read-out: Biochemical Potency (high ATP)) of under 100 nM.
With Cc1cc(Nc2cc3nc(-c4cccc(C5(O)CCCC5)c4)sc3cn2)nc(N2C[C@@H]3C[C@H]2CN3C)n1 [Example 403] the IC50 [1, 2] was 100 to 1000 nM and the IC50 (HPK1; [3]) was under 100 nM.
For CN(Cc1nc(Nc2cc3nc(-c4c(F)cccc4F)sc3cn2)ccc1N1CCOCC1)S(C)(=O)=O [Example 31, N-[(6-{[2-(2,6-Difluorophenyl)-[1,3]thiazolo[5,4-c]pyridin-6-yl]amino}-3-(morpholin-4-yl)pyridin-2-yl)methyl]-N-methylmethanesulfonamide], the IC50 [1, 4] was over 5000 nM and the IC50 (HPK1; [5]) was 1000 to 5000 nM.
Compound Cc1cc(Nc2cc3nc(-c4cnn(C)c4C(=O)N(C)C)sc3cn2)nc(N2C[C@@H]3C[C@H]2CN3C)n1 [Example 372] has an IC50 [1, 2] of 100 to 1000 nM and an IC50 (HPK1; [3]) of under 100 nM.
Cc1cc(Nc2cc3nc(-c4ccc5c(c4)S(=O)(=O)N(C)C5)sc3cn2)nc(N2C[C@@H]3C[C@H]2CN3C)n1 [Example 374] gave an IC50 [1, 2] of 5000 to 25000 nM and an IC50 (HPK1; [3]) of 100 to 1000 nM.
Cc1cccnc1-c1nc2cc(Nc3cccc(N4C[C@@H]5C[C@H]4CN5C)n3)ncc2s1 [Example 90, 6-[(1S,4S)-5-Methyl-2,5-diazabicyclo[2.2.1]heptan-2-yl]-N-[2-(3-methylpyridin-2-yl)-[1,3]thiazolo[5,4-c]pyridin-6-yl]pyridin-2-amine] showed an IC50 [1, 4] of 100 to 1000 nM and an IC50 (HPK1; [5]) of under 100 nM.
For Cc1ccc(Nc2cc3nc(-n4nccc4C)sc3cn2)nc1CN1CCCC1 [Example 197, 5-Methyl-N-[2-(5-methyl-1H-pyrazol-1-yl)-[1,3]thiazolo[5,4-c]pyridin-6-yl]-6-[(pyrrolidin-1-yl)methyl]pyridin-2-amine], the IC50 [1, 4] was 100 to 1000 nM and the IC50 (HPK1; [5]) was under 100 nM.
CC(c1nc(Nc2cc3nc(-c4c(F)cccc4F)sc3cn2)ccc1N1CCOCC1)N(C)C (centres unmarked) [Example 277, N-[2-(2,6-Difluorophenyl)-[1,3]thiazolo[5,4-c]pyridin-6-yl]-6-[1-(dimethylamino)ethyl]-5-(morpholin-4-yl)pyridin-2-amine] was tested, and the IC50 [1, 4] was 1000 to 5000 nM and the IC50 (HPK1; [5]) was under 100 nM.
Work on Cc1cc(Nc2cc3nc(-c4ccc5c(c4)CN(S(C)(=O)=O)CC5)sc3cn2)nc(N2C[C@@H]3C[C@H]2CN3C)n1 [Example 574] yielded an IC50 [1, 2] of 5000 to 25000 nM and an IC50 (HPK1; [3]) of under 100 nM.
Cc1cc(Nc2cc3nc(-c4c(F)cccc4F)sc3cn2)nc(O[C@H]2CCNC2)c1 [Example 175, N-[2-(2,6-Difluorophenyl)-[1,3]thiazolo[5,4-c]pyridin-6-yl]-4-methyl-6-[(3S)-pyrrolidin-3-yloxy]pyridin-2-amine] gave an IC50 [1, 4] of 100 to 1000 nM and an IC50 (HPK1; [5]) of under 100 nM.
Work on CN1C[C@@H]2C[C@H]1CN2c1nccc(Nc2cc3nc(-c4cccc(S(=O)(=O)C5CC5)c4)sc3cn2)n1 [Example 405] yielded an IC50 [1, 2] of 100 to 1000 nM and an IC50 (HPK1; [3]) of under 100 nM.
Work on Cc1cc(Nc2cc3nc(-c4ncccc4C)sc3cn2)nc(O[C@H]2CCNC2)c1 [Example 164, 4-Methyl-N-[2-(3-methylpyridin-2-yl)-[1,3]thiazolo[5,4-c]pyridin-6-yl]-6-[(3S)-pyrrolidin-3-yloxy]pyridin-2-amine] yielded an IC50 [1, 4] of 100 to 1000 nM and an IC50 (HPK1; [5]) of under 100 nM.
Cc1cc(Nc2cc3nc(-c4cnn(C)c4C(C)(C)O)sc3cn2)nc(N2C[C@@H]3C[C@H]2CN3C)n1 [Example 309, 2-{4-[6-(2-{(1S,4S)-5-methyl-2,5-diazabicyclo[2.2.1]hept-2-yl}-6-methyl-4-pyrimidinylamino)-3-thia-1,5-diaza-2-indenyl]-1-methyl-5-pyrazolyl}-2-propanol] gave an IC50 [1, 2] of under 100 nM and an IC50 (HPK1; [3]) of under 100 nM.
Compound CN1C[C@@H]2C[C@H]1CN2c1nccc(Nc2cc3nc(-c4cccc(S(=O)(=O)N(C)C)c4)sc3cn2)n1 [Example 415] has an IC50 [1, 2] of 100 to 1000 nM and an IC50 (HPK1; HPK1 ADP-Glo assay, low ATP (10 μM ATP, 2 nM HPK1), read-out: Biochemical Potency (low ATP)) of under 100 nM.
Cc1cc(Nc2cc3nc(-c4cccnc4)sc3cn2)nc(O[C@H]2CCNC2)c1 [Example 167, 4-Methyl-N-[2-(pyridin-3-yl)-[1,3]thiazolo[5,4-c]pyridin-6-yl]-6-[(3S)-pyrrolidin-3-yloxy]pyridin-2-amine] gave an IC50 [1, 4] of under 100 nM and an IC50 (HPK1; [5]) of under 100 nM.
Cc1ccncc1-c1nc2cc(Nc3ccc(N4CCOCC4)c(CN(C)C)n3)ncc2s1 [Example 3, 6-[(Dimethylamino)methyl]-N-[2-(4-methylpyridin-3-yl)-[1,3]thiazolo[5,4-c]pyridin-6-yl]-5-(morpholin-4-yl)pyridin-2-amine] gave an IC50 [1, 4] of 100 to 1000 nM and an IC50 (HPK1; [5]) of under 100 nM.
Cc1cccnc1-c1nc2cc(Nc3cncc(N4C[C@@H]5C[C@H]4CN5)n3)ncc2s1 [Example 144, 6-[(1S,4S)-2,5-Diazabicyclo[2.2.1]heptan-2-yl]-N-[2-(3-methylpyridin-2-yl)-[1,3]thiazolo[5,4-c]pyridin-6-yl]pyrazin-2-amine] was tested, and the IC50 [1, 4] was 100 to 1000 nM and the IC50 (HPK1; [5]) was under 100 nM.
With Cc1cc(Nc2cc3nc(-c4cccn5nccc45)sc3cn2)nc(N2C[C@@H]3C[C@H]2CN3CCO)n1 [Example 360] the IC50 [1, 2] was 1000 to 5000 nM and the IC50 (HPK1; [3]) was under 100 nM.
Work on Cc1cccnc1-c1nc2cc(Nc3ccc(C)c(N4C[C@H](N)C[C@H]4CO)n3)ncc2s1 [Example 69, [(2S,4R)-4-Amino-1-(3-methyl-6-{[2-(3-methylpyridin-2-yl)-[1,3]thiazolo[5,4-c]pyridin-6-yl]amino}pyridin-2-yl)pyrrolidin-2-yl]methanol] yielded an IC50 [1, 4] of over 5000 nM and an IC50 (HPK1; [5]) of under 100 nM.
For Cc1cc(Nc2cc3nc(-c4cnn(C)c4-c4ccccc4)sc3cn2)nc(N2C[C@@H]3C[C@H]2CN3C)n1 [Example 368], the IC50 [1, 2] was 100 to 1000 nM and the IC50 (HPK1; [3]) was under 100 nM.
